Source: patent US10485235B2, “Aryloxypyrimidinyl ethers as herbicides” (FMC Corporation, priority 2015, dated 2019)

Experiments:
Assay type in all cases: in vivo
[1] = tested on: barnyardgrass (Echinochloa crus-galli); test: Test A preemergence, barnyardgrass; details: Echinochloa crus-galli, pre-emergence, 240 h, Preemergence, 0 to 100 scale (0 no effect, 100 complete control), read-out: Plant response rating, Barnyardgrass; for pest or weed control at 125 g/ha: 125 g ai/ha
How it was run: (§1)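 Approximately 10-day greenhouse assay. Formulated chemical (non-phytotoxic solvent plus surfactant) applied preemergence to soil over seeds or postemergence to plants of 2 to 10 cm. Endpoint: visual percent control, 0–100.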

[2] = tested on: kochia (Kochia scoparia); test: Test A preemergence, kochia; details: Bassia scoparia, pre-emergence, 240 h, Preemergence, 0 to 100 scale (0 no effect, 100 complete control), read-out: Plant response rating, Kochia; for pest or weed control at 125 g/ha: 125 g ai/ha
How it was run: as §1

[3] = tested on: ragweed (common ragweed, Ambrosia elatior); test: Test A preemergence, ragweed; details: Ambrosia artemisiifolia, pre-emergence, 240 h, Preemergence, 0 to 100 scale (0 no effect, 100 complete control), read-out: Plant response rating, Ragweed; for pest or weed control at 125 g/ha: 125 g ai/ha
How it was run: as §1

[4] = tested on: ryegrass, Italian (Italian ryegrass, Lolium multiflorum); test: Test A preemergence, Italian ryegrass; details: Lolium multiflorum, pre-emergence, 240 h, Preemergence, 0 to 100 scale (0 no effect, 100 complete control), read-out: Plant response rating, Ryegrass, Italian; for pest or weed control at 125 g/ha: 125 g ai/ha
How it was run: as §1

[5] = tested on: foxtail, giant (giant foxtail, Setaria faberii); test: Test A preemergence, giant foxtail; details: Setaria faberi, pre-emergence, 240 h, Preemergence, 0 to 100 scale (0 no effect, 100 complete control), read-out: Plant response rating, Foxtail, Giant; for pest or weed control at 125 g/ha: 125 g ai/ha
How it was run: as §1

[6] = tested on: pigweed (Amaranthus retroflexus); test: Test A preemergence, pigweed; details: Amaranthus retroflexus, pre-emergence, 240 h, Preemergence, 0 to 100 scale (0 no effect, 100 complete control), read-out: Plant response rating, Pigweed; for pest or weed control at 125 g/ha: 125 g ai/ha
How it was run: as §1

[7] = tested on: ragweed (common ragweed, Ambrosia elatior); test: Test A postemergence, ragweed; details: Ambrosia artemisiifolia, post-emergence, 240 h, postemergence, 0 to 100 scale, 0 is no effect, 100 is complete control, approximately 10 days, read-out: Plant response rating, Ragweed; for pest or weed control at 125 g/ha: 125 g ai/ha
How it was run: as §1

[8] = tested on: ryegrass, Italian (Italian ryegrass, Lolium multiflorum); test: Test A postemergence, Italian ryegrass; details: Lolium multiflorum, post-emergence, 240 h, postemergence, 0 to 100 scale, 0 is no effect, 100 is complete control, approximately 10 days, read-out: Plant response rating, Ryegrass, Italian; for pest or weed control at 125 g/ha: 125 g ai/ha
How it was run: as §1

[9] = tested on: wheat (Triticum aestivum); test: Test A postemergence, wheat; details: Triticum aestivum, post-emergence, 240 h, postemergence, 0 to 100 scale, 0 is no effect, 100 is complete control, approximately 10 days, read-out: Plant response rating, Wheat; for plant injury at 125 g/ha: 125 g ai/ha
How it was run: as §1

[10] = tested on: corn (Zea mays); test: Test A postemergence, corn; details: Zea mays, post-emergence, 240 h, postemergence, 0 to 100 scale, 0 is no effect, 100 is complete control, approximately 10 days; for Corn plant response rating (crop injury, 0 = no effect, 100 = complete kill) at 125 g/ha: 125 g ai/ha
How it was run: as §1

[11] = tested on: blackgrass (Alopecurus myosuroides); test: Test A postemergence, blackgrass; details: Alopecurus myosuroides, post-emergence, 240 h, postemergence, 0 to 100 scale, 0 is no effect, 100 is complete control, approximately 10 days, read-out: Plant response rating, Blackgrass; for pest or weed control at 125 g/ha: 125 g ai/ha
How it was run: as §1

[12] = tested on: galium (catchweed bedstraw, Galium aparine); test: Test A postemergence, galium; details: Galium, post-emergence, 240 h, postemergence, 0 to 100 scale, 0 is no effect, 100 is complete control, approximately 10 days, read-out: Plant response rating, Galium; for pest or weed control at 125 g/ha: 125 g ai/ha
How it was run: as §1

[13] = tested on: sedge, umbrella (small-flower umbrella sedge, Cyperus difformis); test: Test B flooded paddy test, umbrella sedge; details: Cyperus difformis; 250 g ai/ha, Flood; visual rating after 13 to 15 days; scale 0 to 100, 0 is no effect, 100 is complete control; read-out: Plant response rating, Sedge, Umbrella
How it was run: (§2)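 Plants grown to 2-leaf stage, pots flooded to 3 cm above soil and compound applied directly to paddy water, depth maintained throughout. After 13-15 days in greenhouse, visual rating against untreated controls on 0-100 scale (0 no effect, 100 complete control).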

[14] = tested on: ducksalad (Heteranthera limosa); test: Test B flooded paddy test, ducksalad; details: Heteranthera limosa; 250 g ai/ha, Flood; visual rating after 13 to 15 days; scale 0 to 100, 0 is no effect, 100 is complete control; read-out: Plant response rating, Ducksalad
How it was run: as §2

[15] = tested on: barnyardgrass (Echinochloa crus-galli); test: Test B flooded paddy test, barnyardgrass; details: Echinochloa crus-galli; 250 g ai/ha, Flood; visual rating after 13 to 15 days; scale 0 to 100, 0 is no effect, 100 is complete control; read-out: Plant response rating, Barnyardgrass
How it was run: as §2

| SMILES | pest or weed control at 125 g/ha [1] [%] | pest or weed control at 125 g/ha [2] [%] | pest or weed control at 125 g/ha [3] [%] | pest or weed control at 125 g/ha [4] [%] | pest or weed control at 125 g/ha [5] [%] | pest or weed control at 125 g/ha [6] [%] | pest or weed control at 125 g/ha [7] [%] | pest or weed control at 125 g/ha [8] [%] | plant injury at 125 g/ha [9] [%] | Corn plant response rating (crop injury, 0 = no effect, 100 = complete kill) at 125 g/ha [10] [%] | pest or weed control at 125 g/ha [11] [%] | pest or weed control at 125 g/ha [12] [%] | pest or weed control at 250 g/ha [13] [%] | pest or weed control at 250 g/ha [14] [%] | pest or weed control at 250 g/ha [15] [%] | further results |
| --- | --- | --- | --- | --- | --- | --- | --- | --- | --- | --- | --- | --- | --- | --- | --- | --- |
| N#Cc1cccc(Oc2ncc(Cl)cn2)c1OCCC(F)(F)F [Compound 23, 3-[(5-chloro-2-pyrimidinyl)oxy]-2-(3,3,3-trifluoropropoxy)benzonitrile] | 100 | 100 | 90 | 30 | 100 | 100 | 30 | 40 | 70 | 90 | 70 | 90 | 100 | 100 | 50 | pest or weed control at 31 g/ha ([1]; 31 g ai/ha): 70%; pest or weed control at 31 g/ha ([2]; 31 g ai/ha): 100%; pest or weed control at 31 g/ha ([3]; 31 g ai/ha): 0%; pest or weed control at 31 g/ha ([4]; 31 g ai/ha): 0%; pest or weed control at 31 g/ha ([5]; 31 g ai/ha): 90%; pest or weed control at 31 g/ha ([6]; 31 g ai/ha): 100%; pest or weed control at 31 g/ha ([7]; 31 g ai/ha): 0%; pest or weed control at 31 g/ha ([8]; 31 g ai/ha): 20%; plant injury at 31 g/ha ([9]; 31 g ai/ha): 20%; Corn plant response rating (crop injury, 0 = no effect, 100 = complete kill) at 31 g/ha ([10]; 31 g ai/ha): 10%; pest or weed control at 31 g/ha ([11]; 31 g ai/ha): 20%; pest or weed control at 31 g/ha ([12]; 31 g ai/ha): 60% |
| CCCCOc1c(Br)cccc1Oc1ncc(Cl)cn1 [Compound 13, 2-[3-bromo-2-(butoxy)phenoxy]-5-chloropyrimidine] | 100 | 80 | 0 | 10 | 100 | 100 | 0 | 20 | 20 | 30 | 50 | 90 | 95 | 50 | 0 | pest or weed control at 500 g/ha ([1]; 500 g ai/ha): 100%; pest or weed control at 500 g/ha ([2]; 500 g ai/ha): 100%; pest or weed control at 500 g/ha ([3]; 500 g ai/ha): 10%; pest or weed control at 500 g/ha ([4]; 500 g ai/ha): 90%; pest or weed control at 500 g/ha ([5]; 500 g ai/ha): 100%; pest or weed control at 500 g/ha ([6]; 500 g ai/ha): 100%; pest or weed control at 500 g/ha ([7]; 500 g ai/ha): 10%; pest or weed control at 500 g/ha ([8]; 500 g ai/ha): 90%; plant injury at 500 g/ha ([9]; 500 g ai/ha): 40%; Corn plant response rating (crop injury, 0 = no effect, 100 = complete kill) at 500 g/ha ([10]; 500 g ai/ha): 90%; pest or weed control at 500 g/ha ([11]; 500 g ai/ha): 100%; pest or weed control at 500 g/ha ([12]; 500 g ai/ha): 100% |
